The values below come from PMC3934385, “Componential Profile and Amylase Inhibiting Activity of Phenolic Compounds from Calendula officinalis L. Leaves” (The Scientific World Journal, 2014).

For this test, the target named is T1, amylase from Aspergillus niger.
T1 construct: gene aamA
The experiment in a line: starch hydrolysis, glucose oxidase/peroxidase coupled, A510 microplate. The test is classed as biochemical. The settings on record: 2% starch, phosphate pH 5.0, preincubation 20 min 45°C, then 30 min 50°C. An excerpt:
starch hydrolysis, glucose oxidase/peroxidase coupled, A510 microplate on amylase from Aspergillus niger

In brackets after ≈: the same amount, converted by molar mass.

The term IC50 denotes the concentration at which inhibition is half-maximal. Read a high IC50 as weaker potency in that assay. Take `COc1cc(C(=O)OC[C@H]2OC(O)[C@H](O)[C@@H](O)[C@@H]2O)ccc1O` (mixture of isomers) [compound 6, 6′-O-vanilloyl-β-D-glucopyranose]: the concentration for half-maximal inhibition (IC50) worked out at 79.18 µg/mL.
Same read-out and setting: under `C[C@H]1O[C@H](O[C@H]2[C@H](O)[C@@H](O)[C@@H](O[C@H]3[C@H](O)[C@@H](O)C(O)O[C@@H]3CO)O[C@@H]2CO)[C@H](O)[C@@H](O)[C@@H]1N[C@H]1C=C(CO)[C@@H](O)[C@H](O)[C@H]1O` (stereo partly shown) [Acarbose, reference compound] stands 9.54 ± 0.32 µg/mL (≈ 14.8 µM); under `O=C(O[C@@H]1O[C@H](CO)[C@@H](O)[C@H](O)[C@H]1O)c1ccc(O)cc1` [compound 1, 1′-O-p-hydroxybenzoyl-β-D-glucopyranose], more than 100 µg/mL.
On to `O=C(OC[C@H]1OC(O)[C@H](O)[C@@H](O)[C@@H]1O)c1ccc(O)cc1` (stereo partly drawn) [compound 2, 6′-O-p-hydroxybenzoyl-β-D-glucopyranose], for which the half-maximal inhibitory concentration (IC50) is more than 100 µg/mL.
On to `O=C(O[C@@H]1O[C@H](CO)[C@@H](O)[C@H](O)[C@H]1O)c1ccc(O)c(O)c1` [compound 3, 1′-O-protocatechuoyl-β-D-glucopyranose], for which the concentration for half-maximal inhibition (IC50) came to 62.46 µg/mL (≈ 197 µM).
`O=C(OC[C@H]1OC(O)[C@H](O)[C@@H](O)[C@@H]1O)c1ccc(O)c(O)c1` (stereo partly drawn) [compound 4, 6′-O-protocatechuoyl-β-D-glucopyranose]: the “IC50” value amounted to 66.52 µg/mL (≈ 210 µM).
Same read-out and setting: the same measure for `COc1cc(C(=O)O[C@@H]2O[C@H](CO)[C@@H](O)[C@H](O)[C@H]2O)ccc1O` [compound 5, 1′-O-vanilloyl-β-D-glucopyranose]: 73.69 µg/mL (≈ 223 µM); for `O=C(O)/C=C/c1ccc(O)c(O)c1` [compound 7, caffeic acid]: 2.53 µg/mL (≈ 14 µM).
The same measure, in the same setting: the same measure for `O=C(/C=C/c1ccc(O)c(O)c1)O[C@@H]1C[C@](O)(C(=O)O)C[C@@H](OC(=O)/C=C/c2ccc(O)c(O)c2)[C@H]1O` [compound 9, 3,5-di-O-caffeoylquinic acid]: 25.63 µg/mL (≈ 49.6 µM); for `O=C(/C=C/c1ccc(O)c(O)c1)O[C@@H]1C[C@](OC(=O)/C=C/c2ccc(O)c(O)c2)(C(=O)O)C[C@@H](O)[C@H]1O` [compound 10, 1,5-di-O-caffeoylquinic acid]: 37.15 µg/mL (≈ 71.9 µM).
With `O=C(/C=C/c1ccc(O)c(O)c1)O[C@@H]1[C@H](O)C[C@@](O)(C(=O)O)C[C@H]1OC(=O)/C=C/c1ccc(O)c(O)c1` [compound 11, 4,5-di-O-caffeoylquinic acid], the half-inhibitory concentration (IC50) worked out at 26.65 µg/mL (≈ 51.6 µM).
`O=c1ccc2ccc(O)cc2o1` [compound 12, umbelliferone]: the “IC50” value is more than 100 µg/mL.
The same measure, in the same setting: under `O=c1ccc2cc(O)c(O)cc2o1` [compound 13, aesculetin] stands 1.02 µg/mL (≈ 5.73 µM); under `O=c1ccc2cc(O[C@@H]3O[C@H](CO)[C@@H](O)[C@H](O)[C@H]3O)c(O)cc2o1` [compound 14, aesculin], more than 100 µg/mL.
For the compound `O=c1ccc2cc(O)c(O[C@@H]3O[C@H](CO)[C@@H](O)[C@H](O)[C@H]3O)cc2o1` [compound 15, cichoriin], the “IC50” value is more than 100 µg/mL.
`COc1cc2ccc(=O)oc2cc1O` [compound 16, scopoletin]: the “IC50 (μg mL^-1)” value is given as ~ 100 μg mL^−1.
Regarding `O=c1c(O)c(-c2ccc(O)c(O)c2)oc2cc(O)cc(O)c12` [compound 17, quercetin], the concentration for half-maximal inhibition (IC50) turned out to be 1.79 µg/mL (≈ 5.92 µM).
For `O=c1c(O[C@@H]2O[C@H](CO)[C@@H](O)[C@H](O)[C@H]2O)c(-c2ccc(O)c(O)c2)oc2cc(O)cc(O)c12` [compound 18, isoquercitrin], the “IC50” value came to 15.45 µg/mL (≈ 33.3 µM).
Still for that read-out and setting: the same measure for `CC(=O)OC[C@H]1O[C@@H](Oc2c(-c3ccc(O)c(O)c3)oc3cc(O)cc(O)c3c2=O)[C@H](O)[C@@H](O)[C@@H]1O` [compound 19, quercetin-3-O-(6′′-acetyl)-β-D-glucopyranoside]: 32.70 µg/mL (≈ 64.6 µM).
Same read-out and setting: under `C[C@@H]1O[C@@H](OC[C@H]2O[C@@H](Oc3c(-c4ccc(O)c(O)c4)oc4cc(O)cc(O)c4c3=O)[C@H](O)[C@@H](O)[C@@H]2O)[C@H](O)[C@H](O)[C@H]1O` [compound 20, rutin] stands 89.85 µg/mL (≈ 147 µM); under `COc1cc(-c2oc3cc(O)cc(O)c3c(=O)c2O)ccc1O` [compound 21, isorhamnetin], 2.64 µg/mL (≈ 8.35 µM); under `COc1cc(-c2oc3cc(O)cc(O)c3c(=O)c2O[C@@H]2O[C@H](CO)[C@@H](O)[C@H](O)[C@H]2O)ccc1O` [compound 22, isorhamnetin-3-O-β-D-glucopyranoside], 23.41 µg/mL (≈ 48.9 µM).
`COc1cc(-c2oc3cc(O)cc(O)c3c(=O)c2O[C@@H]2O[C@H](COC(C)=O)[C@@H](O)[C@H](O)[C@H]2O)ccc1O` [compound 23, isorhamnetin-3-O-(6′′-acetyl)-β-D-glucopyranoside]: the “IC50 (μg mL^-1)” value is reported as ~ 100 μg mL^−1.
Consider `COc1cc(-c2oc3cc(O)cc(O)c3c(=O)c2O[C@@H]2O[C@H](CO[C@@H]3O[C@@H](C)[C@H](O)[C@@H](O)[C@H]3O)[C@@H](O)[C@H](O)[C@H]2O)ccc1O` [compound 24, narcissin], for which the “IC50” value was more than 100 µg/mL.
Still for that read-out and setting: under `COc1cc(-c2oc3cc(O)cc(O)c3c(=O)c2O[C@@H]2O[C@H](CO[C@@H]3O[C@@H](C)[C@H](O)[C@@H](O)[C@H]3O)[C@@H](O)[C@H](O)[C@H]2O[C@@H]2O[C@@H](C)[C@H](O)[C@@H](O)[C@H]2O)ccc1O` [compound 25, thyphaneoside] stands more than 100 µg/mL.
